The structures appear in SMILES notation.

The subject of this test is skin. As to the kind of experiment: application on the skin against injuries caused by solar/UV radiation. It counts as in vivo. Particulars: persists in the presence of sunscreens.

Turning to `CC(C)c1cc2c(c(C(C)C)c1)[O][Cu]1([O]C2=O)[O]C(=O)c2cc(C(C)C)cc(C(C)C)c2[O]1` [copper (II) bis(3,5-diisopropylsalicylate)], the “intensity of the solar erythema” value was “reduced” and the “number of degraded keratinocytes” value is on record as “reduced”.

These data come from patent publication US6419907B1, “Use of cupric complex of 3,5-disopropylsalicylic acid by way of a cosmetic product and cosmetic compositions containing this compound for protecting the human epidermis against UV radiation” (L'Oreal, priority 1987, dated 2002).
